Molecules are shown by their SMILES.

The target of one assay is T1, Human TREX1 (Homo sapiens, UniProt Q9NSU2).
T1 sequence (Q9NSU2 1-314): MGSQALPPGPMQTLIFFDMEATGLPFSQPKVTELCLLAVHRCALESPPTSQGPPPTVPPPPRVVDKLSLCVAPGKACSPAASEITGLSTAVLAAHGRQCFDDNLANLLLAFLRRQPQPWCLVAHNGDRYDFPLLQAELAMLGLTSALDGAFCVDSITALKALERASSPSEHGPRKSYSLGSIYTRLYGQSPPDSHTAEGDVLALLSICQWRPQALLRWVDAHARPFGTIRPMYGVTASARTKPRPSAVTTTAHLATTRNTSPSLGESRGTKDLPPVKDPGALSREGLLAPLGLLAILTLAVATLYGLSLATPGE
In words: Gel assay (orthogonal control, IR-680 oligonucleotide strand degradation). The assay is classed as biochemical. The following applies: polyacrylamide gel, top band intensity; different doses of inhibitor. The protocol:
A gel assay was conducted as an orthogonal control to confirm observations of TREX1 inhibitors determined with the fluorescence-based assay. Briefly, compounds were diluted in DMSO at 50× the final concentration. Human TREX1 was diluted to […] (2×concentration) in assay buffer (assay buffer: 20 mM Tris pH 7.7 (Life T-echnologies), 5 mM MgCl2 (Sigma), 0.01% HSA (Sigma), 0.01% Brij-35 (ThermoFisher), 2 mM DTT (Sigma)). Oligonucleotide strand (IR-680-5′[…]-3′) (Custom probe made by Trilink) was diluted in the same assay buffer to a working concentration of 25 nM (final concentration of 12.5 nM). Example 107 was added to […] human TREX1 enzyme in clear 96 well plates. The plate was then incubated at 25° C. for 30 minutes. Twenty five nM oligonucleotide strand was added to the plate, to a final concentration of 30 pM TREX1, 12.5 nM oligo, 1× compound and incubated at 25° C. Fifteen minutes later, the reaction was stopped by removing 10 μl of the reaction and adding it to 20 μl of a solution of 50 mM EDTA/1.5× loading dye buffer (6× Orange DNA loading dye; ThermoFisher) in a 96 well PCR plate. […] The top band was quantified using Image Studio (Licor). […] The top band intensity was measured using the Odyssey scanner (Li-Cor) and ImageStudio software (Li-Cor) and FIG. 1B: Graph representing the percent of top band intensity degradation as a measure of human TREX1 activity. […]

Assay [1] concerns the target T2, Human TREX1 enzyme (amino acids 1-242) (Homo sapiens, UniProt Q9NSU2).
T2 construct: Human TREX1 enzyme (amino acids 1-242)
T2 sequence (Q9NSU2 1-242): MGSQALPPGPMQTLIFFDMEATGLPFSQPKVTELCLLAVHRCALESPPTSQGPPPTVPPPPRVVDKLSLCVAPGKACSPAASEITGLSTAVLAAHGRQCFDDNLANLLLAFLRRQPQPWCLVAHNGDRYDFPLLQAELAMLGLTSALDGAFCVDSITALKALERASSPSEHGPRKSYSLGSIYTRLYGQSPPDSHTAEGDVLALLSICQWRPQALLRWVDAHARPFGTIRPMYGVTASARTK
In words: Human TREX1 enzymatic assay with dsDNA native oligonucleotide (Picogreen fluorescence). The assay is classed as biochemical. The following applies: 2 mM dithiothreitol in assay buffer; 50 nM dsDNA oligonucleotide; 30 min preincubation at 25° C.; read-out: TREX1/Human + DTT IC50 AVG. An outline of the steps: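 Remaining dsDNA quantified by Picogreen fluorescence after EDTA quench, with no-enzyme and DMSO wells as controls. Reactions used 50 nM annealed oligonucleotide for 5–15 min at 25 °C, after a 30 min compound–enzyme preincubation (0.8–0.16 nM TREX1; 2% DMSO; pH 7.7 Tris, 5 mM MgCl2).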

For `COc1cc(-c2nc3ccc(N4CCN(S(C)(=O)=O)CC4)cc3n2C2CCOC2)cc(O)c1O` (centres unmarked) [Example 107, 3-methoxy-5-(6-(4-(methylsulfonyl)piperazin-1-yl)-1-(tetrahydrofuran-3-yl)-1H-benzo[d]imidazol-2-yl)benzene-1,2-diol], at Human TREX1, the “inhibition of human TREX1 / DNA degradation in gel assay (FIGS. 1A and 1B)” value was “inhibits human TREX1 and prevents DNA degradation”. Also, in assay [1], the IC50 lay in the range of 1 to 10 µM.

(Values after US20230234943A1, “TREX1 INHIBITORS AND USES THEREOF” (Tempest Therapeutics, Inc., priority 2020, published 2023).)
